US20190112580A1, “METHODS FOR TREATING CO[…] AND RELATED CULTURED CELLS” (priority 2017, published 2019)

Test system: CP myoblast cultures
Experiment: Real-time qPCR gene expression profiling in fusing CP myoblasts
Assay type: cell-based, human
Parameters: key to JAG2 Expression / ATP2A1 Expression / DLL1 Expression / MYF5 Expression / ATP2A2 Expression / JAG1 Expression / SIX1 Expression / MYH7 Expression / CDKN1A Expression / NRG1 Expression / DLK1 Expression: relative expression vs non-treated; ≥2 up, ≤0.5 down
Experimental: To investigate whether additional signaling pathways and genes were affected by 5-AZA treatment, real-time qPCR was used to analyze the expression of 91 genes involved in myogenesis, neurogenesis and adipogenesis in fusing CP myoblasts after 24 hours of pretreatment with 5 μM of 5-AZA (Supp. Table 2A). […] Also, 5-AZA pretreatment led to upregulation of transcription regulators involved in myogenesis and other signaling pathways (BMI1, SIX1, SIX4, EGR3, FOXO1, MAPK14, MEF2A, MEF2C, MYF5, MYOG, NEUROD2, NOTCH2, PAX3, PAX7, PPARA, PPARD, PPARG, RPBJ, RARA). […] Impairment in other signaling pathways involved in myoblast fusion and myotube formation (e.g., TMEM8C/Myomaker, Rho GTPases, MAPKs, Calcineurin-NFATc2, NF-KB, WNT, MMPs) may also contribute to the decrease in myogenic potential of CP myoblasts.
Myoblasts, treated or non-treated with 5 μM 5-AZA for 24 hours, were cultured in high serum medium until they reached 80-90% confluence. After switch to low-serum medium, myoblast preparations were allowed to differentiate for 24-72 hours before RNA extraction. Total RNA was isolated and purified from myoblast cell culture preparations using Trizol reagent (Ambion—Life Technologies) according to manufacturer's recommendations. First-strand cDNA synthesis from purified RNAs and qPCR amplification was performed using the GoTaq 2-Step RT-qPCR System kit (Promega) according to manufacturer's protocols. Resulting cDNAs were subjected to SYBR Green-based real-time amplification using a C1000 Thermal Cycler apparatus (Bio-Rad). Each PCR amplification reaction (20 μl volume) contained 100 ng of starting cDNA template and primers amplifying a specific gene. Gene expression profiling during myoblast differentiation was investigated using predesigned 96-well gene panels for use with SYBR Green (SABioscience) (Tables 1A and 2A).
The predesigned 96-well gene panels utilized expertly designed and experimentally validated PCR primers and assays and included 3 reference genes for relative gene expression normalization and quantification: HPRT1, TBP and AP3DI. These reference genes were specifically validated for our experimental treatment and conditions and were selected among 15 experimentally tested candidates and analyzed using the software packages Bestkeeper, geNorm and Normfinder. Cycling conditions for SYBR Green primers consisted of an initial step at 50° C. (2 minutes) and a first denaturizing step at 95° C. (2 minutes), followed by 50 cycles of a thermal step protocol consisting of 95° C. (20 seconds), 60° C. (20 seconds) and 72° C. (20 seconds). A standard melt curve profiling consisting of a 65-95° C. thermal ramp was performed at the end of each protocol. Gene expression quantification was performed using Bio-Rad CFX Manager software. Positively and negatively regulated genes were selected following a P<0.05 and a 2 or 0.5 expression level respectively. Functional gene classification was performed using The Database for Annotation, Visualization and Integrated Discovery (DAVID) v6.8 (at <https://david.ncifcrf.gov/>).

[1] = 5 μM 24 hours pretreatment vs non-treated CP, 48-72 hours of differentiation
[2] = gene ACTA1, 5 μM 24 h pretreatment vs non-treated CP
[3] = gene ACTG1, 5 μM 24 h pretreatment vs non-treated CP
[4] = gene ACTN2, 5 μM 24 h pretreatment vs non-treated CP
[5] = gene ATP2A1, 5 μM 24 h pretreatment vs non-treated CP
[6] = gene ATP2A2, 5 μM 24 h pretreatment vs non-treated CP
[7] = gene BCL2, 5 μM 24 h pretreatment vs non-treated CP
[8] = gene BMI1, 5 μM 24 h pretreatment vs non-treated CP
[9] = gene CAV3, 5 μM 24 h pretreatment vs non-treated CP
[10] = gene CDKN1A, 5 μM 24 h pretreatment vs non-treated CP
[11] = gene DES, 5 μM 24 h pretreatment vs non-treated CP
[12] = gene DLK1, 5 μM 24 h pretreatment vs non-treated CP
[13] = gene DLL1, 5 μM 24 h pretreatment vs non-treated CP
[14] = gene EGR3, 5 μM 24 h pretreatment vs non-treated CP
[15] = gene FHL2, 5 μM 24 h pretreatment vs non-treated CP
[16] = gene FOXO1, 5 μM 24 h pretreatment vs non-treated CP
[17] = gene ITGA7, 5 μM 24 h pretreatment vs non-treated CP
[18] = gene ITGB1, 5 μM 24 h pretreatment vs non-treated CP
[19] = gene JAG1, 5 μM 24 h pretreatment vs non-treated CP
[20] = gene JAG2, 5 μM 24 h pretreatment vs non-treated CP
[21] = gene LRP4, 5 μM 24 h pretreatment vs non-treated CP
[22] = gene MAPK14, 5 μM 24 h pretreatment vs non-treated CP
[23] = gene MEF2A, 5 μM 24 h pretreatment vs non-treated CP
[24] = gene MEF2C, 5 μM 24 h pretreatment vs non-treated CP
[25] = gene MET, 5 μM 24 h pretreatment vs non-treated CP
[26] = gene MYF5, 5 μM 24 h pretreatment vs non-treated CP
[27] = gene MYF6, 5 μM 24 h pretreatment vs non-treated CP
[28] = gene MYH2, 5 μM 24 h pretreatment vs non-treated CP
[29] = gene MYH3, 5 μM 24 h pretreatment vs non-treated CP
[30] = gene MYH7, 5 μM 24 h pretreatment vs non-treated CP
[31] = gene MYH8, 5 μM 24 h pretreatment vs non-treated CP
[32] = gene MYH9, 5 μM 24 h pretreatment vs non-treated CP
[33] = gene MYOG, 5 μM 24 h pretreatment vs non-treated CP
[34] = gene NCAM1, 5 μM 24 h pretreatment vs non-treated CP
[35] = gene NEUROD2, 5 μM 24 h pretreatment vs non-treated CP
[36] = gene NOTCH2, 5 μM 24 h pretreatment vs non-treated CP
[37] = gene NRG1, 5 μM 24 h pretreatment vs non-treated CP
[38] = gene PAK1, 5 μM 24 h pretreatment vs non-treated CP
[39] = gene PAX3, 5 μM 24 h pretreatment vs non-treated CP
[40] = gene PAX7, 5 μM 24 h pretreatment vs non-treated CP
[41] = gene PDGFRA, 5 μM 24 h pretreatment vs non-treated CP
[42] = gene PDGFRB, 5 μM 24 h pretreatment vs non-treated CP
[43] = gene PPARA, 5 μM 24 h pretreatment vs non-treated CP
[44] = gene PPARD, 5 μM 24 h pretreatment vs non-treated CP
[45] = gene PPARG, 5 μM 24 h pretreatment vs non-treated CP
[46] = gene RARA, 5 μM 24 h pretreatment vs non-treated CP
[47] = gene RBPJ, 5 μM 24 h pretreatment vs non-treated CP
[48] = gene SHH, 5 μM 24 h pretreatment vs non-treated CP
[49] = gene SIX1, 5 μM 24 h pretreatment vs non-treated CP
[50] = gene SIX4, 5 μM 24 h pretreatment vs non-treated CP
[51] = gene TMEM8C, 5 μM 24 h pretreatment vs non-treated CP

Compound: Nc1ncn([C@@H]2O[C@H](CO)[C@@H](O)[C@H]2O)c(=O)n1 [5-AZA, 5-azacytidine]
- genes significantly downregulated (of 91 genes) [1]: 7 genes
- genes significantly upregulated (of 91 genes) [1]: 43 genes
- ACTA1 Expression [2]: 5.23
- ACTA1 Regulation [2]: 5.2
- ACTG1 Expression [3]: 0.09
- ACTG1 Regulation [3]: −10.7
- ACTN2 Expression [4]: 5.96
- ACTN2 Regulation [4]: 6.0
- ATP2A1 Expression [5]: 7.87
- ATP2A1 Regulation [5]: 7.9
- ATP2A2 Expression [6]: 3.26
- ATP2A2 Regulation [6]: 3.3
- BCL2 Expression [7]: 5.33
- BCL2 Regulation [7]: 5.3
- BMI1 Expression [8]: 2.97
- BMI1 Regulation [8]: 3.0
- CAV3 Expression [9]: 2.92
- CAV3 Regulation [9]: 2.9
- CDKN1A Expression [10]: 0.23
- CDKN1A Regulation [10]: −4.4
- DES Expression [11]: 6.23
- DES Regulation [11]: 6.2
- DLK1 Expression [12]: 16.51
- DLK1 Regulation [12]: 16.5
- DLL1 Expression [13]: 7.05
- DLL1 Regulation [13]: 7.0
- EGR3 Expression [14]: 14.93
- EGR3 Regulation [14]: 14.9
- FHL2 Expression [15]: 0.45
- FHL2 Regulation [15]: −2.2
- FOXO1 Expression [16]: 7.30
- FOXO1 Regulation [16]: 7.3
- ITGA7 Expression [17]: 4.22
- ITGA7 Regulation [17]: 4.2
- ITGB1 Expression [18]: 2.11
- ITGB1 Regulation [18]: 2.1
- JAG1 Expression [19]: 2.61
- JAG1 Regulation [19]: 2.6
- JAG2 Expression [20]: 10.19
- JAG2 Regulation [20]: 10.2
- LRP4 Expression [21]: 3.01
- LRP4 Regulation [21]: 3.0
- MAPK14 Expression [22]: 2.84
- MAPK14 Regulation [22]: 2.8
- MEF2A Expression [23]: 10.08
- MEF2A Regulation [23]: 10.1
- MEF2C Expression [24]: 5.79
- MEF2C Regulation [24]: 5.8
- MET Expression [25]: 2.07
- MET Regulation [25]: 2.1
- MYF5 Expression [26]: 6.99
- MYF5 Regulation [26]: 7.0
- MYF6 Expression [27]: 3.77
- MYF6 Regulation [27]: 3.8
- MYH2 Expression [28]: 6.99
- MYH2 Regulation [28]: 7.0
- MYH3 Expression [29]: 6.74
- MYH3 Regulation [29]: 6.7
- MYH7 Expression [30]: 2.15
- MYH7 Regulation [30]: 2.1
- MYH8 Expression [31]: 2.51
- MYH8 Regulation [31]: 2.5
- MYH9 Expression [32]: 0.17
- MYH9 Regulation [32]: −5.8
- MYOG Expression [33]: 7.72
- MYOG Regulation [33]: 7.7
- NCAM1 Expression [34]: 6.55
- NCAM1 Regulation [34]: 6.6
- NEUROD2 Expression [35]: 56.33
- NEUROD2 Regulation [35]: 56.3
- NOTCH2 Expression [36]: 3.12
- NOTCH2 Regulation [36]: 3.1
- NRG1 Expression [37]: 0.47
- NRG1 Regulation [37]: −2.1
- PAK1 Expression [38]: 4.49
- PAK1 Regulation [38]: 4.5
- PAX3 Expression [39]: 12.50
- PAX3 Regulation [39]: 12.5
- PAX7 Expression [40]: 2.88
- PAX7 Regulation [40]: 2.9
- PDGFRA Expression [41]: 0.38
- PDGFRA Regulation [41]: −2.6
- PDGFRB Expression [42]: 0.34
- PDGFRB Regulation [42]: −2.9
- PPARA Expression [43]: 2.69
- PPARA Regulation [43]: 2.7
- PPARD Expression [44]: 3.55
- PPARD Regulation [44]: 3.6
- PPARG Expression [45]: 24.42
- PPARG Regulation [45]: 24.4
- RARA Expression [46]: 2.19
- RARA Regulation [46]: 2.2
- RBPJ Expression [47]: 3.84
- RBPJ Regulation [47]: 3.8
- SHH Expression [48]: 23.75
- SHH Regulation [48]: 23.8
- SIX1 Expression [49]: 2.21
- SIX1 Regulation [49]: 2.2
- SIX4 Expression [50]: 3.20
- SIX4 Regulation [50]: 3.2
- TMEM8C Expression [51]: 3.59
- TMEM8C Regulation [51]: 3.6
